# Assay results taken from US20250197641A1, “OPTICAL ABSORBENT” (priority 2023, published 2025).
# Columns and labels:
# Format in all cases: physicochemical
# [1] = Absorption maximum measurement; conditions: chloroform, about 10^-5 M
# Protocol: The maximum absorption was evaluated by a conventional method. Specifically, the sample was dissolved in chloroform solvent at a concentration of about 10^−5 M and then evaluated using measuring equipment (Agilent, Varian Cary 4000).
# [2] = Pyrolysis temperature (Td 5%) analysis by TGA; conditions: 25-800° C., 10° C./min, N2
# Protocol: The Td 5% is a value obtained through TGA (Thermogravimetric Analysis) analysis. It is the value (Td 5%) at a weight loss of 5% confirmed under the conditions of a temperature range of 25° C. to 800° C., a temperature increase rate of 10° C./min, and a nitrogen (N2) atmosphere of 60 cm^3/min.
# Thermogravimetric Analysis (TGA) of the chemical compound was performed by using Scinco's TGA N-1000 equipment. The analysis was performed by using approximately 3 mg of sample (chemical compound) and the analysis was conducted under conditions of a temperature range of 25° C. to 800° C., a temperature increase rate of 10° C./min, and nitrogen (N2) atmosphere of 60 cm^3/min. The value at […] (Td 5%) was used as the Td decomposition temperature.
# [3] = Solubility of the absorbent in methylene chloride; conditions: room temperature (about 25° C.)
# Protocol: The solubility of the absorbent was evaluated. Solubility was determined based on the following criteria by evaluating the solubility of the absorbent in the solvent (MC, Methylene Chloride) at room temperature (about 25° C.).
# [4] = Transmittance of absorption membrane before and after reliability evaluation (Test Example 1)
# Protocol: The transmittance spectrum was measured using a spectrophotometer (Manufacturer: Perkinelmer, Product Name: Lambda 750 Spectrophotometer) on a specimen obtained by cutting the measurement object (e.g., an absorption membrane) so that the width and height were 10 mm and 10 mm, respectively. The transmittance spectrum was measured for each wavelength according to the equipment manual. The specimen was placed on a straight line between a measuring beam of the spectrophotometer and a detector and the transmittance spectrum was confirmed by setting the incident angle of the measuring beam to 0°. The incident angle of 0° is a direction substantially parallel to the surface normal direction of the specimen. The average transmittance within a certain wavelength range in the transmittance spectrum is the result of measuring the transmittance at each wavelength while increasing the wavelength by 1 nm starting from the shortest wavelength in the wavelength range, and then calculating the arithmetic average of the measured transmittances. The maximum transmittance is the maximum transmittance among the transmittances measured while increasing the wavelength by 1 nm and the minimum transmittance is the minimum transmittance among the transmittances measured while increasing the wavelength by 1 nm. For example, the average transmittance within the wavelength range of 350 nm to 360 nm is the arithmetic mean of the transmittance measured at the wavelength of 350 nm, 351 nm, 352 nm, 353 nm, 354 nm, 355 nm, 356 nm, 357 nm, 358 nm, 359 nm, and 360 nm. The maximum transmittance within the wavelength range of 350 nm to 360 nm is the highest transmittance measured at wavelengths of 350 nm, 351 nm, 352 nm, 353 nm, 354 nm, 355 nm, 356 nm, 357 nm, 358 nm, 359 nm and 360 nm and the minimum transmittance within the wavelength range of 350 nm to 360 nm is the lowest transmittance among the transmittances measured at wavelengths of 350 nm, 351 nm, 352 nm, 353 nm, 354 nm, 355 nm, 356 nm, 357 nm, 358 nm, 359 nm, and 360 nm.
# A coating solution was prepared by mixing silicone resin (Dow Chemical, RSN-0217), absorbent, and solvent (cyclohexanone) as resin components. The mixing ratio of the resin component, absorbent, and solvent was set to be 69.3:0.99:29.7 in weight ratio (resin:absorbent:solvent).
# The coating solution was coated on a transparent substrate (a glass substrate manufactured by SCHOTT) and maintained at 140° C. for about 2 hours to form an absorption membrane with a thickness of about 6 μm.
# Tables 2 and 3 below summarize the transmittance of the absorption membrane before and after reliability evaluation in the ultraviolet and near-infrared regions. The reliability evaluation is an evaluation of maintaining the absorption membrane at 85° C. and under 85% relative humidity condition for 120 hours. In Table 2, B refers to the result before performing the reliability evaluation and A refers to the result after performing the reliability evaluation. Additionally, in Table 2, λmax means the transmittance at the absorption maximum.
# In Tables 2 and 3, Δ is the rate of change (%) of each characteristic before and after the reliability evaluation, calculated as 100×[…]/B, where […], B is the value indicated by B in Table 2. In Table 2, Tmax refers to the highest transmittance within the corresponding wavelength region, Tave refers to the average transmittance within the corresponding wavelength region, and Tmin refers to the minimum transmittance within the corresponding wavelength region.
# [5] = Absorption spectra of absorption membrane before and after high temperature/high humidity evaluation (Test Example 2); conditions: 85% relative humidity, 120 hours
# Source text: FIGS. 4 to 6 are the absorption spectra of the absorption membranes prepared in Test Example 1 using the absorbents of Embodiments 1 to 3, respectively. FIGS. 7 to 9 are the absorption spectrum of the absorption membrane prepared in Test Example using the absorbents of Comparative Examples 1 to 3, respectively. In the FIGS., the spectra indicated before reliability is the result immediately after preparing the absorption membrane, and the spectra indicated after reliability is the result after high temperature/high humidity evaluation was performed on the absorption membrane. The high temperature/high humidity evaluation is an evaluation where the absorption membrane is maintained at a temperature of 85° C. under a relative humidity of 85% for 120 hours. In Tables 4 and 5, Af is the transmittance at the absorption maximum wavelength of the absorption membrane maintained at 85° C. under 85% relative humidity for 120 hours and λf is the absorption maximum wavelength for after case. Ai is the transmittance at the absorption maximum wavelength of the absorption membrane before being maintained at 85° C. under 85% relative humidity for 120 hours and λi is the absorption maximum wavelength for before case. In Tables 4 and 5, ΔA is a value calculated as 100×(Af−Ai)/Ai, and Δλ is a value calculated as 100×(λf−λi)λi.
# [6] = change before/after 85° C., 85% RH, 120 hours
# [7] = silicone resin membrane about 6 μm, before reliability evaluation
# [8] = silicone resin membrane, after 85° C., 85% RH, 120 hours
# [9] = absorption membrane after 85° C.
# [10] = absorption membrane before 85° C.
smiles,measurement,setting,value
CCCCN1/C(=C\C=C2/CCC(/C=C/C3=[N+](CCCC)c4ccccc4C3(C)C)=C2Cl)C(C)(C)c2ccccc21 [Comparative Example 3],Maximum Absorption Wavelength,[1],815 nm
same,Td 5%,[2],186 °C
same,Solubility,[3],A (When solubility is 1 mass % or more)
same,"425~465 nm Tave, Δ",[4]; [6],−0.2%
same,"425~465 nm Tmin, Δ",[4]; [6],0%
same,"466~480 nm Tave, Δ",[4]; [6],−0.9%
same,"466~480 nm Tmin, Δ",[4]; [6],−0.6%
same,"480~560 nm Tave, Δ",[4]; [6],−1.3%
same,"λmax Tmax (transmittance at the absorption maximum), Δ",[4]; [6],11.4%
same,"425~465 nm Tave, B",[4]; [7],87.3%
same,"425~465 nm Tmin, B",[4]; [7],86.5%
same,"466~480 nm Tave, B",[4]; [7],88.9%
same,"466~480 nm Tmin, B",[4]; [7],88%
same,"480~560 nm Tave, B",[4]; [7],90.4%
same,"425~465 nm Tave, A",[4]; [8],87%
same,"425~465 nm Tmin, A",[4]; [8],86.6%
same,"466~480 nm Tave, A",[4]; [8],88%
same,"466~480 nm Tmin, A",[4]; [8],87.5%
same,"480~560 nm Tave, A",[4]; [8],89.2%
same,ΔA = 100×(Af−Ai)/Ai,[5]; 85° C.,52.6%
same,Δλ = 100×(λf−λi)λi,[5]; 85° C.,−12%
same,"Af, transmittance at the absorption maximum wavelength",[5]; [9],33.0%
same,"λf, absorption maximum wavelength",[5]; [9],818 nm
same,"Ai, transmittance at the absorption maximum wavelength",[5]; [10],21.6%
same,"λi, absorption maximum wavelength",[5]; [10],819 nm
